The source of these data is patent US12692254B2, “Benzimidazole inhibitors of PAD enzymes” (BRISTOL-MYERS SQUIBB COMPANY, priority 2018, dated 2026).

This assay addresses human PAD4 (hPAD4) (Homo sapiens, UniProt Q9UM07). Nature of the assay: RFMS human PAD4 functional assay (rapid-fire mass spectrum). It counts as biochemical. The following applies: 5 nM hPAD4 enzyme, 250 μM BAEE, 50 μM Calcium; 30 min preincubation, 90 min reaction at 37° C. The method, then: Compounds of the present invention were assayed as inhibitors of PAD4 using the assay protocol described below.
RFMS tinman PAD4 Functional Assay:
Compounds were solubilized in 100% DMSO to achieve a 10 mM compound concentration. Compound stock solutions were stored at RT. A series of dilutions were prepared in DMSO and mixed 8 times with 20 μl, mixing volume. Final top concentration of compound in the assay is 50 μM. […] 1-90 min enzyme/substrate reaction, 30 min reaction with phenyl glyoxal at 37° C. • Stop solution: 40 μl 5% TCA in ACN
0.13 μL of compound solution was added to 13 μL of 10 nM PAD4 in assay buffer. After 30 min 13 μl of 500 μM of BAEE was added in 25 mM hepes, pH 7.5, 5 mM NaCl, 1 mM DTT, 0.2 mg/ml BS A, 0.01% CHAPS, 50 μM Calcium, 5 μM TPEN was added and the reaction incubated for 90 min at 37° C. The enzymatic reaction was quenched by addition of 15 μl of 6.1N TCA, 100% Final Concentration is 20%, 35 μl of 8.5 mM phenyl glyoxal (final concentration 4 mM) is then added and the reaction is incubated for 30 min at 37° C.
After 30 minutes the plates are spun down to remove all precipitate. The enzyme reaction was quenched with an equal volume of methanol containing internal standard (modified citrulline). Samples were loaded onto the Rapid Fire RF300 system (Agilent) wherein they were first sipped for 1000 ms and then directly loaded to a C18 separations cartridge using a mixture of acetonitrile containing 0.01% formic acid for 3000 ms desalting. The flow rate of the mobile phase was 1.5 ml/min.
The dwell time for each transition was set at 200 ms, and the ESI voltage was used at 5500 with a source temperature of 400° C. Extracted ion peaks for each transition were integrated using the Rapid Fire Integrator software. Peak area of analyte was normalized with internal standard).

For orientation: IC50 means the point on the concentration scale where inhibition reaches its midpoint.

Sequence of human PAD4 (hPAD4) (Q9UM07 whole entry): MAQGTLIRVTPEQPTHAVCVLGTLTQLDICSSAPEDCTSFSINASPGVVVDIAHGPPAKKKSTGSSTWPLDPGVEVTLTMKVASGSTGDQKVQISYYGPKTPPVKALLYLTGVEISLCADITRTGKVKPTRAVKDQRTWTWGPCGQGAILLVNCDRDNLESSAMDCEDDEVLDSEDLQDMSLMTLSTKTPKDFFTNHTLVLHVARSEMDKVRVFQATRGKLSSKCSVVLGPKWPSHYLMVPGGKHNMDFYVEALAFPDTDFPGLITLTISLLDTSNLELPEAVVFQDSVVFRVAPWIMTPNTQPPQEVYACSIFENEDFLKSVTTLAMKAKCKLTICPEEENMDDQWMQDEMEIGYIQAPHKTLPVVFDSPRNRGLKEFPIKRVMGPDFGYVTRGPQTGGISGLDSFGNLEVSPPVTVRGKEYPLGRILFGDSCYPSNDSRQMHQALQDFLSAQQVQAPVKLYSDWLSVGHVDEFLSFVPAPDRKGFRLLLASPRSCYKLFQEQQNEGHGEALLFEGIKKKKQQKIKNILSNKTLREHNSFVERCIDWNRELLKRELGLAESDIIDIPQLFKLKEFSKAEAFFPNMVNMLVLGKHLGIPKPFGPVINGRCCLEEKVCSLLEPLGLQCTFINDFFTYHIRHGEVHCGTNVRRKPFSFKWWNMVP

Regarding `COc1cc(C(=O)N2C[C@H]3CC[C@@H]2[C@@H]3N)cc2nc(-c3cc4ccccc4n3CC3CC3)n(CC3CN(C(=O)c4ccc(O)cc4)C3)c12` [Example 140, 4-[3-({5-[(1R,4R,7R)-7-amino-2-azabicyclo[2.2.1]heptane-2-carbonyl]-2-[1-(cyclopropylmethyl)-1H-indol-2-yl]-7-methoxy-1H-1,3-benzodiazol-1-yl}methyl)azetidine-1-carbonyl]phenol], the concentration for half-maximal inhibition (IC50) worked out at 14 nM.
With `N[C@@H]1C2CCC1N(C(=O)c1cc(F)c3c(c1)nc(-c1cc4ccccc4n1CC1CC1)n3CC1CN(C(=O)c3ccccc3)C1)C2` (stereo partly drawn) [Example 136, (1R,4R,7R)-2-{1-[(1-benozylazetidin-3-yl)methyl]-2-[1-(cyclopropylmethyl)-1H-indol-2-yl]-7-fluoro-1H-1,3-benzodiazole-5-carbonyl}-2-azabicyclo[2.2.1]heptan-7-amine], the IC50 came to 11 nM.
The value for `COc1cc(C(=O)N2C[C@H]3CC[C@@H]2[C@@H]3N)cc2nc(-c3cc4ccccc4n3CC3CC3)n(Cc3ccnn3C)c12` [Example 265, (1R,4R,7R)-2-{2-[1-(cyclopropylmethyl)-1H-indol-2-yl]-7-methoxy-1-[(1-methyl-1H-pyrazol-5-yl)methyl]-1H-1,3-benzodiazole-5-carbonyl}-2-azabicyclo[2.2.1]heptan-7-amine] was 65 nM.
The value for `COc1cc(C(=O)N2C[C@H](N)C[C@@H](F)C2)cc2nc(-c3cc4cccnc4n3CC3CC3)n(Cc3ccnn3C)c12` [Example 518, (3R,5R)-1-{2-[1-(cyclopropylmethyl)-1H-pyrrolo[2,3-b]pyridin-2-yl]-7-methoxy-1-[(1-methyl-1H-pyrazol-5-yl)methyl]-1H-1,3-benzodiazole-5-carbonyl}-5-fluoropiperidin-3-amine] was 606 nM; that for `COc1cc(C(=O)N2CC3CCC2[C@@H]3N)cc2nc(-c3cc4cccnc4n3CC3CC3)n(CC3CCN(C(=O)c4ncccn4)CC3)c12` (stereo partly drawn) [Example 236, (1R,4R.,7R)-2-{2-[1-(cyclopropylmethyl)-1H-pyrrolo[2,3-b]pyridin-2-yl]-7-methoxy-1-{[1-(pyrimidine-2-carbonyl)piperidin-4-yl]methyl}-1H-1,3-benzodiazole-5-carbonyl}-2-azabicyclo[2.2.1]heptan-7-amine] was 402 nM; that for `COc1cc(C(=O)N2CC3CCC2[C@@H]3N)cc2nc(-c3cc4ccccc4n3CC3CC3)n(Cc3cn(C)nc3C)c12` (stereo partly drawn) [Example 492, (7R)-2-{2-[1-(cyclopropylmethyl)-1H-indol-2-yl]-1-[(1,3-dimethyl-1H-pyrazol-4-yl)methyl]-7-methoxy-1H-1,3-benzodiazole-5-carbonyl}-2-azabicyclo[2.2.1]heptan-7-amine] was 78 nM.
The value for `COc1cc(C(=O)N2C[C@H](N)C[C@@H](F)C2)cc2nc(-c3cc4cccnc4n3CC3CC3)n(Cc3cnn(-c4ncc(F)cc4F)c3)c12` [Example 393, (3R,5R)-1-{2-[1-(cyclopropylmethyl)-1H-pyrrolo[2,3-b]pyridin-2-yl]-1-{[1-(3,5-difluoropyridin-2-yl)-1H-pyrazol-4-yl]methyl}-7-methoxy-1H-1,3-benzodiazole-5-carbonyl}-5-fluoropiperidin-3-amine] was 49 nM; that for `COc1cc(C(=O)N2CC3CCC2[C@@H]3N)cc2nc(-c3cc4cccnc4n3CC3CC3)n(Cc3cnn(-c4cncnc4)c3)c12` (stereo partly drawn) [Example 408, (7R)-2-{2-[1-(cyclopropylmethyl)-1H-pyrrolo[2,3-b]pyridin-2-yl]-7-methoxy-1-{[1-(pyrimidin-5-yl)-1H-pyrazol-4-yl]methyl}-1H-1,3-benzodiazole-5-carbonyl}-2-azabicyclo[2.2.1]heptan-7-amine] was 74 nM.
As to `COc1cc(C(=O)N2CCC[C@@H](N)C2)cc2nc(-c3cc4ccccc4n3CC3CC3)n(Cc3cnn(C)c3)c12` [Example 267, (3R)-1-{2-[1-(cyclopropylmethyl)-1H-indol-2-yl]-7-methoxy-1-[(1-methyl-1H-pyrazol-4-yl)methyl]-1H-1,3-benzodiazole-5-carbonyl}piperidin-3-amine], the IC50 amounted to 98 nM.
As to `COc1cc(C(=O)N2C[C@H]3CC[C@@H]2[C@@H]3N)cc2nc(-c3cc4ccccc4n3CC3CC3)n(CC3CN(C(=O)c4cccn4C)C3)c12` [Example 148, (1R,4R,7R)-2-{2-[1-(cyclopropylmethyl)-1H-indol-2-yl]-7-methoxy-1-{[1-(1-methyl-1H-pyrrole-2-carbonyl)azetidin-3-yl]methyl}-1H-1,3-benzodiazole-5-carbonyl}-2-azabicyclo[2.2.1]heptan-7-amine], the IC50 is 19 nM.
As for `COc1cc(C(=O)N2CC3CCC2[C@@H]3N)cc2nc(-c3csc4ccc(Cl)cc34)n(CC3CN(c4cncc(C(N)=O)c4)C3)c12` (stereo partly drawn) [Example 322, 5[3-({5-[(1R,4R,7R)-7-amino-2-azabicyc1o[2.2.1]heptane-2-carbonyl]-2-(5-ch1oro-1-benzothiophen-3-yl)-7-methoxy-1H-1,3-benzodiazol-1-yl}methyl)azetidin-1-yl]pyridine-3-carboxamide], the figure is 2050 nM; as for `COc1cc(C(=O)N2C[C@H]3CC[C@@H]2[C@@H]3N)cc2nc(-c3cc4ccccc4n3CC3CC3)n(CC3CN(C(=O)c4cccc(C(=O)O)c4)C3)c12` [Example 137, 3-[3-({5-[(1R,4R,7R)-7-amino-2-azabicyclo[2.2.1]heptane-2-carbonyl]-2-[1-(cyclopropylmethyl)-1H-indol-2-yl]-7-methoxy-1H-1,3-benzodiazol-1-yl}methyl)azetidine-1-carbonyl]benzoic acid], 11 nM; as for `COc1cc(C(=O)N2CC3CCC2[C@@H]3N)cc2nc(-c3cc4ccccc4n3CC3CC3)n(CC3CN(C(=O)Nc4ccccc4)C3)c12` (stereo partly drawn) [Example 472, 3-({5-[(7R)-7-amino-2-azabicyclo[2.2.1]heptane-2-carbonyl]-2-[1-(cyclopropylmethyl)-1H-indol-2-yl]-7-methoxy-1H-1,3-benzodiazol-1-yl}methyl)-N-phenylazetidine-1-carboxamide], 75 nM.
Regarding `COc1cc(C(=O)N2C[C@H]3CC[C@@H]2[C@@H]3N)cc2nc(-c3cc4cccnc4n3CC3CC3)n(C[C@H]3CCN(c4cncc(C#N)n4)C3)c12` [Example 203, 6-[(3S)-3-({5-[(1R,4R,7R)-7-amino-2-azabicyclo[2.2.1]heptane-2-carbonyl]-2-[1-(cyclopropylmethyl)-1H-pyrrolo[2,3-b]pyridin-2-yl]-7-methoxy-1H-1,3-benzodiazol-1-yl}methyl)pyrrolidin-1-yl]pyrazine-2-carbonitrile], the IC50 came out at 23 nM.
As for `COc1cc(C(=O)N2C[C@H]3CC[C@@H]2[C@@H]3N)cc2nc(-c3cc4cccnc4n3CC3CC3)n(CC3CN(c4ccc(C#N)cc4)C3)c12` [Example 25, 4-[3-({5-[(1R,4R,7R)-7-amino-2-azabicyclo[2.2.1]heptane-2-carbonyl]-2-[1-(cyclopropylmethyl)-1H-pyrrolo[2,3-b]pyridin-2-yl]-7-methoxy-1H-1,3-benzodiazol-1-yl}methyl)azetidin-1-yl]benzonitrile], the figure is 72 nM; as for `COc1cc(C(=O)N2CC3CCC2[C@@H]3N)cc2nc(-c3cc4ccc(C(C)O)cc4n3CC3CC3)n(CC3CN(C(=O)c4ccccc4)C3)c12` (stereo partly drawn) [Example 521, l-(2-{5-[(7R)-7-amino-2-azabicyclo[2.2.1]heptane-2-carbonyl]-1-[(1-benzoylazetidin-3-yl)methyl]-7-methoxy-1H-1,3-benzodiazol-2-yl}-1-(cyclopropylmethyl)-1H-indol-6-yl)ethan-1-ol], 86 nM; as for `COc1cc(C(=O)N2C[C@H]3CC[C@@H]2[C@@H]3N)cc2nc(-c3cc4cc(Cl)ccc4n3C)n(CC3CN(c4cncc(C#N)n4)C3)c12` [Example 59, 6-[3-({5-[(1R,4R,7R)-7-amino-2-azabicyclo[2.2.1]heptane-2-carbonyl]-2-(5-chloro-1-methyl-1H-indol-2-yl)-7-methoxy-1H-1,3-benzodiazol-1-yl}methyl)azetidin-1-yl]pyrazine-2-carbonitrile], 171 nM.
The value for `COc1cc(C(=O)N2CC3CCC2[C@@H]3N)cc2nc(-c3cc4cccnc4n3CC3CC3)n(CC3CC(C(N)=O)C3)c12` (stereo partly drawn) [Example 475, 3-({5-[(7R)-7-amino-2-azabicyclo[2.2.1]heptane-2-carbonyl]-2-[1-(cyclopropylmethyl)-1H-pyrrolo[2,3-b]pyridin-2-yl]-7-methoxy-1H-1,3-benzodiazol-1-yl}methyl)cyclobutane-1-carboxamide] was 180 nM; that for `COc1cc(C(=O)N2C[C@H]3CC[C@@H]2[C@@H]3N)cc2nc(-c3cc4cccnc4n3CC3CC3)n(CC3CN(C(=O)c4cc[nH]c(=O)c4)C3)c12` [Example 182, 4-[3-({5-[(1R,4R,7R)-7-amino-2-azabicyclo[2.2.1]heptane-2-carbonyl]-2-[1-(cyclopropylmethyl)-1H-pyrrolo[2,3-b]pyridin-2-yl]-7-methoxy-1H-1,3-benzodiazol-1-yl}methyl)azetidine-1-carbonyl]-1,2-dihydropyridin-2-one] was 204 nM.
